According to US20250019361A1, “(3-QUINOLYL)-QUINAZOLINE” (BASF SE, priority 2021, published 2025):

Tested on: Septoria tritici
Assay: Microtest: activity against leaf blotch on wheat caused by Septoria tritici
Type: cell-based
Settings: 8 ppm
Method: The active compounds were formulated separately as a stock solution having a concentration of 10000 ppm in dimethyl sulfoxide.
The stock solutions were mixed according to the ratio, pipetted onto a micro titer plate (MTP) and diluted with water to the stated concentrations.
A spore suspension of Septoria tritici in an aqueous biomalt or yeast-bactopeptone-glycerine or DOB solution was then added.
The measured parameters were compared to the growth of the active compound-free control variant (100%) and the fungus-free blank value to determine the relative growth in % of the pathogens in the respective active compounds.

## CCN1c2c(F)cccc2C(c2cnc3c(F)cccc3c2)=NC1(C)C [Ex-10]
  growth of the pathogen (relative growth in %, control 100%): 19%

## CCCCN1c2c(F)cccc2C(c2cnc3c(F)cccc3c2)=NC1(C)C [Ex-9]
  growth of the pathogen (relative growth in %, control 100%): 19%

## N#CN1c2ccccc2C(c2cnc3c(F)cccc3c2)=NC12CCCC2 [Ex-7]
  growth of the pathogen (relative growth in %, control 100%): 19%

## CC1(C)N=C(c2cnc3c(F)cccc3c2)c2ccccc2N1C#N [Ex-8]
  growth of the pathogen (relative growth in %, control 100%): 19%

## CCCN1c2c(F)cccc2C(c2cnc3c(F)cccc3c2)=NC1(C)C [Ex-11]
  growth of the pathogen (relative growth in %, control 100%): 19%
